Test results taken from doi:10.1101/108654v1 (biorxiv, 2017).

Key:
[1] = test system: DU145; assay: cells; set-up: species or system human cancer cell lines; settings: Homo sapiens, DU-145, 48 h, read-out: DU145
[2] = test system: MCF7; assay: cells; set-up: species or system human cancer cell lines; settings: Homo sapiens, MCF7, 48 h, read-out: MCF7
[3] = test system: HepG2; assay: cells; set-up: species or system human cancer cell lines; settings: Homo sapiens, HepG2, 48 h, read-out: HepG2
[4] = test system: SKOV3; assay: cells; set-up: species or system human cancer cell lines; settings: Homo sapiens, SK-OV-3, 48 h, read-out: SKOV3
[5] = test system: MDA MB-231; assay: cells; set-up: species or system human cancer cell lines; settings: Homo sapiens, MDA-MB-231, 48 h, read-out: MDA MB-231
[6] = in vitro; settings: human, mrc5 cells
[7] = molecular target: porcine brain tubulin (Sus scrofa, UniProt P02550+P02554); assay: fluorescence-based tubulin polymerization assay; type: biochemical; settings: read-out: % inhibition at 3 μM
porcine brain tubulin, sequence (P02550 whole entry): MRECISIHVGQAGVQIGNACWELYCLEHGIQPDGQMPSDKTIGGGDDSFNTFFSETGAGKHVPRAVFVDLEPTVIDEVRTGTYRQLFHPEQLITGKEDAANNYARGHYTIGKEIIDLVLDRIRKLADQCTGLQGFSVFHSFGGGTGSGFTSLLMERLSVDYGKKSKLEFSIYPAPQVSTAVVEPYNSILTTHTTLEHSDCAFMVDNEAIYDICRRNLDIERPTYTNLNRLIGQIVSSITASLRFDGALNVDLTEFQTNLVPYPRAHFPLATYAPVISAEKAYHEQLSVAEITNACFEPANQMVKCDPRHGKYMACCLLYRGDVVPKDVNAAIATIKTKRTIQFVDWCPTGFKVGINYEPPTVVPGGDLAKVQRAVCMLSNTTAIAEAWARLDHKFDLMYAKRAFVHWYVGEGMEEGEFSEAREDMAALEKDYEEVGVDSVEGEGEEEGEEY
porcine brain tubulin, sequence (P02554 whole entry): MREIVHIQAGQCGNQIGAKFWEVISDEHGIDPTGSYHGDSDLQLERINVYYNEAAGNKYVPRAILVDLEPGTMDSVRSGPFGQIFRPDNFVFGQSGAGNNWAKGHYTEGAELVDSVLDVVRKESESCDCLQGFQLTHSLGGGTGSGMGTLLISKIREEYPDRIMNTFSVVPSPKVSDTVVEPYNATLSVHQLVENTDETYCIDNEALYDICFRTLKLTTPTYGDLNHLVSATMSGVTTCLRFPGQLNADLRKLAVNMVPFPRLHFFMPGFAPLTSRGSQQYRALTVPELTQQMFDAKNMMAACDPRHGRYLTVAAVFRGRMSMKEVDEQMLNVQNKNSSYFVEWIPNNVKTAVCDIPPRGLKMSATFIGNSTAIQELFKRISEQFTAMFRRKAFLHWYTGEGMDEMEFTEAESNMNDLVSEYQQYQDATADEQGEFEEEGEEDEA

Clc1ccc2nc(Cl)nc(-c3ccccc3Cl)c2c1 [ATS-1]
GI50 [1]: > 10 µM
GI50 [2]: > 10 µM
GI50 [3]: > 10 µM
GI50 [4]: 0.15 ± 0.05 µM
GI50 [5]: > 10 µM
CC50 at 48 h [6]: 136 ± 1.63 µM

Clc1ccc2nc(NN=Cc3c(Cl)cccc3Cl)nc(-c3ccccc3)c2c1 [ATS-3]
GI50 [1]: 2.27 ± 0.37 µM
GI50 [2]: > 10 µM
GI50 [3]: > 10 µM
GI50 [4]: 0.47 ± 0.06 µM
GI50 [5]: 8.84 ± 0.12 µM
CC50 at 48 h [6]: 159 ± 1.06 µM

O=[N+]([O-])c1ccc(C=NNc2nc(-c3ccccc3)c3cc(Cl)ccc3n2)o1 [ATS-4]
GI50 [1]: 0.81 ± 0.07 µM
GI50 [2]: > 10 µM
GI50 [3]: 1.35 ± 0.45 µM
GI50 [4]: 2.75 ± 0.35 µM
GI50 [5]: > 10 µM
CC50 at 48 h [6]: 162 ± 1.82 µM

Clc1ccc2nc(Nc3c(Cl)cccc3Cl)nc(-c3ccccc3)c2c1 [ATS-7]
inhibition at 3 µM [7]: 59%
GI50 [1]: > 10 µM
GI50 [2]: 0.6 ± 0.07 µM
GI50 [3]: > 10 µM
GI50 [4]: 10.3 ± 0.62 µM
GI50 [5]: > 10 µM
CC50 at 48 h [6]: 141 ± 1.41 µM

COc1cccc2c1C(=O)c1c(O)c3c(c(O)c1C2=O)C[C@@](O)(C(=O)CO)C[C@@H]3O[C@H]1C[C@H](N)[C@H](O)[C@H](C)O1 [Doxorubicin]
GI50 [1]: < 0.1 µM
GI50 [2]: < 0.1 µM
GI50 [3]: < 0.1 µM
GI50 [4]: 1.17 ± 0.52 µM
GI50 [5]: < 0.1 µM

COC(=O)Nc1nc2ccc(C(=O)c3cccs3)cc2[nH]1 [nocodazole]
GI50 [1]: 0.17 ± 0.07 µM
GI50 [2]: < 0.1 µM
GI50 [3]: 7.06 ± 0.54 µM
GI50 [4]: < 0.1 µM
GI50 [5]: 2.8 ± 0.51 µM
CC50 at 48 h [6]: 129 ± 1.48 µM
